The text below walks through data of patent publication US8268961B2, “Antibacterial peptides and analogues thereof” (Universita Degli Studi di Siena, priority 2004, dated 2012).

Data set [1] concerns E. coli strain TG1. The experiment in a line: Test of antibacterial activity (colony growth inhibition) on E. coli strain TG1. Format: cell-based. In short, it runs like this:
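E. coli TG1 (OD600 0.2) was incubated 75 min at 37 °C with peptide in PBS at 0.12–2 mg/ml. Cells were then diluted 1:1000, plated on 2×TY agar and grown overnight at 30 °C, and colonies were counted against an untreated control.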

A short description of another data set: in vitro. Format: cell-based. How it is done:
(§1) The cytotoxicity of antibacterial MAP peptides was evaluated on different eukaryotic cell lines by a colorimetric assay (MTT). This assay measures the cells' ability to convert a soluble tetrazolium salt into an insoluble precipitate: formazan. The cytotoxicity of M1 was evaluated on murine macrophagic cells (J774 A.1), murine myeloma cells (SPO) and Chinese hamster ovary epithelium cells (CHO K1). As shown FIG. 4, even at high concentrations (1 mg/ml) M1 cytotoxicity on CHO K1 cells and on SPO cells is low (percent survival is 80-90%).
For cytotoxicity tests, different cell lines were used: murine myeloma cells SPO, hamster ovary epithelium cells CHO K 1, murine macrophage cells J774 A.1 and human keratinocytes HaCaT. The cells were plated in medium in RPMI 1640 (SPO and CHO K 1) and DMEM (J774 A.1 and HaCaT) with antibiotics and bovine foetal serum at 10%, in 96-well plates at the concentration of 6×10^4 (SPO, CHO K1 and J774 A.1) and 3×10^4 (HaCaT). […] Cell viability was determined adding the MTT tetrazolium salt at the concentration of 0.5 mg/ml and incubating for 90 min. The cells were solubilised with a solution at pH 4.5 containing SDS 10% and dimethylformamide 45% and read at the dual wavelength of 595/650 nm with a plate reader.

The nature of a further data set: Cytotoxicity test by MTT. In kind it is cell-based, mouse. To be noted: mouse, J774 A.1 murine macrophage cells. As for the experimental part:
as §1
For cytotoxicity tests, different cell lines were used: murine myeloma cells SPO, hamster ovary epithelium cells CHO K 1, murine macrophage cells J774 A.1 and human keratinocytes HaCaT. The cells were plated in medium in RPMI 1640 (SPO and CHO K 1) and DMEM (J774 A.1 and HaCaT) with antibiotics and bovine foetal serum at 10%, in 96-well plates at the concentration of 6×10^4 (SPO, CHO K1 and J774 A.1) and 3×10^4 (HaCaT). Peptides, previously filtered with a 0.2 μm filter disk (Whatman), were added at various concentrations to the different cell lines and left in incubation over night at 37° C. Cell viability was determined adding the MTT tetrazolium salt at the concentration of 0.5 mg/ml and incubating for 90 min. The cells were solubilised with a solution at pH 4.5 containing SDS 10% and dimethylformamide 45% and read at the dual wavelength of 595/650 nm with a plate reader.

The subject of data set [2] is E. coli strain TG1. The experiment in a line: Stability of peptide in solution (time course of antibacterial activity). In kind it is physicochemical. To be noted: PBS 0.5 mg/ml, 1, 48 and 72 hours. As for the experimental part: FIG. 6. Stability of M1 peptide in solution. Time course of antibacterial activity of M1 on E. coli strain TG1. MAP M1 peptide was dissolved in PBS at a concentration of 0.5 mg/ml and bactericide activity was measured 1, 48 and 72 hours after re-suspension in PBS.
FIG. 8. Stability of M4, M5 and M6 peptides in solution. Time course of antibacterial activity of M4, M5 and M6 on E. coli strain TG1. M4, M5 and M6 peptides were dissolved in PBS at a concentration of 0.5 mg/ml and bactericide activity was measured 1, 48 and 144 hours after re-suspension in PBS.

The nature of data set [3]: Stability to plasmatic protease (HPLC). Format: in vitro ADME, human. How it is done: Since the use of peptides as therapeutic agents is severely limited by their in vivo half-life, the stability to human serum protease of the linear peptide L1 and of the MAP peptides M1, M4, M5 and M6 was evaluated. The peptides were incubated at the concentration of 10 mM with plasma and with human serum for 2 and 24 hours; the samples were subsequently analysed in HPLC on column C18 (see materials and methods) to evaluate the presence of linear and MAP peptide not digested by the protease.
The various peptides in MAP form and the linear peptide (L1) were dissolved in H2O at the concentration of 10 mM and incubated with 10 μl of plasma and human serum for 2 and 24 hours at 37° C. To each sample were added 150 μl of methanol to block the proteolytic reaction; each sample was then centrifuged at 13,000 rpm for 2 min and to the supernatant were added 0.75 ml of 0.1% trifluoroacetic acid. The samples were analysed in reverse phase HPLC on a Vydac C18 semi-preparative column using a 30 min gradient of buffer B from 20% to 95% (buffer A: 0.1% trifluoroacetic acid/water; buffer B: 0.1% trifluoroacetic acid/methanol), to evaluate the presence of linear and MAP peptide after the proteolytic treatment.

Positions of bridges follow the written chain, without caps; N, C: chain ends. Chains are numbered I, II in the order given. No end group written: not given here.

What is called viability is a read-out of living cells in per cent, often relative to untreated cells. Consider “I: QEKIRVRLSAKKA-OH / II: QEKIRVRLSAK / III: QEKIRVRLSA / IV: QEKIRVRLSA (amide I:11-IV:C, I:12-II:C, II:11-III:C) [M1]”, for which, in the data set with E. coli strain TG1 [1] (E. coli TG1, MAP form), the “Concentration down to which TG1 E. coli colony growth is prevented” value is reported as “less effective”. In the data set with E. coli strain TG1 [1] (E. coli TG1, colony counting vs control without peptide), the “Antibacterial activity on E. coli TG1 colony growth” value is recorded as “inhibited significantly”. Besides, the viability at 1000 µg/mL is 80 to 90% in “in vitro” (CHO K1 cells (Chinese hamster ovary epithelium)); 80 to 90% in “in vitro” (mouse, SPO murine myeloma cells); about 50% in the data set “Cytotoxicity test by MTT”. In addition, the “Stability in solution: antibacterial activity over time after resuspension” value in the data set on E. coli strain TG1 [2] was “drop in activity over time”. For the same substance, the “Resistance to plasmatic protease: Plasma 2 h” value in data set [3] is “+”.
